Results on ten molecules are retold here after patent publication US9586900B2, “Pyrrolone or pyrrolidinone melanin concentrating hormone receptor-1 antagonists” (BRISTOL-MYERS SQUIBB COMPANY, priority 2012, dated 2017).

Sequence of human melanin concentrating hormone receptor (MCHR1) (Q99705 whole entry E4Q/A5T): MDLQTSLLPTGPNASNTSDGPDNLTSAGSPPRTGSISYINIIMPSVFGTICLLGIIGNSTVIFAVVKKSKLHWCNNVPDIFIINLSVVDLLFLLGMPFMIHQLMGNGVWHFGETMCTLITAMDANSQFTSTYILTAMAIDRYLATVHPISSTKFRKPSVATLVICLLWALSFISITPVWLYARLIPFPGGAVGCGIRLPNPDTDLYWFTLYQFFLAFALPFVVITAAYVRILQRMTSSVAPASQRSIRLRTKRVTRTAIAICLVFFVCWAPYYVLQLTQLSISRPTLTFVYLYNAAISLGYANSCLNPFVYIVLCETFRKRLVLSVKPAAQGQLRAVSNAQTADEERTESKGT

One assay has as its target human melanin concentrating hormone receptor (MCHR1) (Homo sapiens (Human), UniProt Q99705, A5T/E4Q). The assay is described as follows: Radioligand binding assay for assessment of MCHR1 activity. The settings on record: Table A; membranes of HEK-293 cells expressing mutated (E4Q, A5T) hMCHR1; competition with [Phe13,[125I]Tyr19]-MCH. On the procedure:
Radioligand Binding Assay for Assessment of MCHR1 Activity
An in vitro binding assay was used to determine the compound Ki value or ability to antagonize binding of a peptide agonist to the human melanin concentrating hormone receptor (MCHR1). […] Binding experiments were carried out with 0.5-1.0 μg of membrane protein incubated in a total of 0.2 mL in 25 mM HEPES (pH 7.4) with 10 mM MgCl2, 2 mM EGTA, and 0.1% BSA (Binding Buffer) for 90 min. For competition binding assays, reactions were carried out in the presence of with 0.06-0.1 nM [Phe^13, [^125I]Tyr^19]-MCH and increasing concentrations of unlabeled test molecules. […] Filters were dried, 0.05 mL MicroScint 20 was added to each well and radioactivity was subsequently quantified by scintillation counting on a TOPCOUNT® microplate scintillation counter (Packard). Inhibitory constants were determined by nonlinear least squares analysis using a four parameter logistic equation.
`COc1cc(N2CC[C@@H](Oc3ccc(C(F)(F)F)cc3)C2=O)ccc1OCC(C)(C)O` [Example 9, (R)-1-(4-(2-Hydroxy-2-methylpropoxy)-3-methoxyphenyl)-3-(4-(trifluoromethyl)phenoxy)pyrrolidin-2-one] registered a Ki of 23 nM.
The molecule `COc1cc(N2CC[C@H](Oc3ccc(C(F)(F)F)cc3)C2=O)ccc1OCC(C)(C)O` [Example 10, (S)-1-(4-(2-Hydroxy-2-methylpropoxy)-3-methoxyphenyl)-3-(4-(trifluoromethyl)phenoxy)pyrrolidin-2-one] registered a Ki of 6000 nM.

The same assay, now with this note: Table C; membranes of HEK-293 cells expressing mutated (E4Q, A5T) hMCHR1; competition with [Phe13,[125I]Tyr19]-MCH.
The molecule `Cc1cc(N2CCC(Oc3ccc(OC(F)(F)F)cc3)C2=O)ccc1OCC[S+](C)[O-]` (stereo not shown) [Example 101, 1-(3-Methyl-4-(2-(methylsulfinyl)ethoxy)phenyl)-3-(4-(trifluoromethoxy)phenoxy)pyrrolidin-2-one] came in with a Ki of 77 nM.
The same measure, in the same setting: the same measure for `Cc1cc(N2CC[C@@H](Oc3ccc(-c4ccccc4)cc3)C2=O)ccc1OCCS(C)(=O)=O` [Example 105, (R)-3-(Biphenyl-4-yloxy)-1-(3-methyl-4-(2-(methylsulfonyl)ethoxy)phenyl)pyrrolidin-2-one]: 2 nM.
In turn, `Cc1cc(N2CC[C@H](Oc3ccc(-c4ccccc4)cc3)C2=O)ccc1OCCS(C)(=O)=O` [Example 106, (S)-3-(Biphenyl-4-yloxy)-1-(3-methyl-4-(2-(methylsulfonyl)ethoxy)phenyl)pyrrolidin-2-one] showed a Ki of 636 nM.
Still for that read-out and setting: the same measure for `Cc1cc(N2CCC(Oc3ccc(-c4ccccc4F)cc3)C2=O)ccc1OCCS(C)(=O)=O` (stereo not shown) [Example 107]: 5 nM; for `Cc1cc(N2CCC(Oc3ccc(-c4ccncc4)cc3)C2=O)ccc1OCCS(C)(=O)=O` (stereo not shown) [Example 113, 1-(3-Methyl-4-(2-(methylsulfonyl)ethoxy)phenyl)-3-(4-(pyridin-4-yl)phenoxy)pyrrolidin-2-one]: 55 nM; for `Cc1cc(N2CCC(Oc3ccc(C4CC4)cc3)C2=O)ccc1OCCS(C)(=O)=O` (stereo not shown) [Example 114]: 7 nM.

The assay is the same for the next values; noted with them: Table D; membranes of HEK-293 cells expressing mutated (E4Q, A5T) hMCHR1; competition with [Phe13,[125I]Tyr19]-MCH.
Consider `COc1cc(N2CC=C(Oc3ccc(C4CC4)cc3)C2=O)ccc1OCC(C)(C)O` [Example 116, 3-(4-Cyclopropylphenoxy)-1-(4-(2-hydroxy-2-methylpropoxy)-3-methoxyphenyl)-1H-pyrrol-2(5H)-one], for which the Ki came out at 3 nM.
On to `COc1cc(N2CC=C(Oc3ccc(C4CC4)cc3)C2=O)ccc1O` [Example 120], for which affinity was put at a Ki of 10 nM.

By Ki is commonly meant a measure of affinity in units of concentration, obtained from inhibition or displacement. A high value points to weaker binding.
